Here are results for 55 compounds from ChEMBL document CHEMBL6103589, “Synthesis and evaluation of novel ebselen derivatives as urease inhibitors for combating Helicobacter pylori infections” (Eur J Med Chem, 2025).

≈ marks a conversion by molar mass, not a printed value. Calls of active or inactive are those of the source. The rule behind the calls is not given here.

The target of one test is Urease subunit alpha/Urease subunit beta (Helicobacter pylori (strain ATCC 700392 / 26695) (Campylobacterpylori), UniProt P69996). The test is described as follows: Inhibition of Helicobacter pylori ATCC 43504 urease preincubated for 75 mins followed by urea addition and measured after 30 mins by ELISA. Format: protein-complex assay.
Urease subunit alpha/Urease subunit beta, sequence (P69996 whole entry): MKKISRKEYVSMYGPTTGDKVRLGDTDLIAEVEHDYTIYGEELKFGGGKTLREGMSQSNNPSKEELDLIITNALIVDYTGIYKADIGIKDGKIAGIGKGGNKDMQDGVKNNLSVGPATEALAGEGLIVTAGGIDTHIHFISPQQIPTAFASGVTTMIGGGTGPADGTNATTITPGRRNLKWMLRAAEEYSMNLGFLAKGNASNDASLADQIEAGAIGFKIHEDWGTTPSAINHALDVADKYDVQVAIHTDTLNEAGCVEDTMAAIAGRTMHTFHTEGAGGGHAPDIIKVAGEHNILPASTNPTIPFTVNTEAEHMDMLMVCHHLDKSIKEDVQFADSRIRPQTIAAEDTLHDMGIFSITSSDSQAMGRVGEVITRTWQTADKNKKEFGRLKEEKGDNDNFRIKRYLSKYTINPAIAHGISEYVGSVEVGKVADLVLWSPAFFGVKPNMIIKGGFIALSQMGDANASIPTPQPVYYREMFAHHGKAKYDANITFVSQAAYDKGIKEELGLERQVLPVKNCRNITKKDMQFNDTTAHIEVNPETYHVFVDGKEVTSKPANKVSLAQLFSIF
Urease subunit alpha/Urease subunit beta, sequence (P14916 whole entry, further chain): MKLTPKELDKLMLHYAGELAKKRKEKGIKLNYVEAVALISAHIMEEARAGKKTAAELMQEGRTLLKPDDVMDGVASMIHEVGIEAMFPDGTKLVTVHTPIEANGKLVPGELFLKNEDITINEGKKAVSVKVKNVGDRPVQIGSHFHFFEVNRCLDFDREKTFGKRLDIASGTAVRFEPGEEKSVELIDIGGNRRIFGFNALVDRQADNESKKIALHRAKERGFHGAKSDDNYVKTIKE
Conditions: not given
Background: ELISA stands for enzyme-linked immunosorbent assay.
The term IC50 denotes the concentration at which inhibition is half-maximal. Low readings indicate higher potency, high ones lower potency. On to `COC(=O)c1ccc(-n2[se]c3ccccc3c2=O)cc1`, for which 5230 nM corresponded to half-maximal inhibition (IC50).

`O=C(c1cc(F)ccc1F)n1[se]c2ccccc2c1=O`: half-maximal inhibition (IC50) required 2980 nM.

Regarding `O=c1c2ccccc2[se]n1-c1c(F)cccc1Cl`, the IC50 stood at 1530 nM.

Compound `O=C(c1ccc(F)c(F)c1F)n1[se]c2ccccc2c1=O` displayed an IC50 of 3480 nM. This IC50 is about 2.3-fold higher than that of the compound before.

The compound `COc1ccccc1C(=O)n1[se]c2ccccc2c1=O` had an IC50 of 1100 nM.

For the compound `COc1cccc(C(=O)n2[se]c3ccccc3c2=O)c1`, the IC50 turned out to be 1980 nM.

Take `O=C(c1ccc(F)cc1)n1[se]c2ccccc2c1=O`: the IC50 is 890 nM.

In turn, `O=C(c1cccc(Br)c1)n1[se]c2ccccc2c1=O` returned a concentration for half-maximal inhibition (IC50) of 820 nM. The IC50 values of the last two compounds are within 1.5-fold of each other.

With `O=c1c2ccccc2[se]n1-c1cccc(OC(F)(F)F)c1`, the IC50 was found to be 7230 nM.

In turn, `O=C(c1ccccc1[N+](=O)[O-])n1[se]c2ccccc2c1=O` gave an IC50 of 2650 nM.

`O=C(c1cccc(F)c1)n1[se]c2ccccc2c1=O` had a 50% inhibitory concentration (IC50) of 440 nM. This IC50 is about 6-fold lower than that of the compound before.

Regarding `Cc1cccc(C(=O)n2[se]c3ccccc3c2=O)c1`, the IC50 is 5410 nM.

Take `O=C(Oc1n[se]c2ccccc12)c1ccccc1F`: 310 nM corresponded to half-maximal inhibition (IC50).

In turn, `O=C(c1ccccc1C(F)(F)F)n1[se]c2ccccc2c1=O` registered an IC50 of 3990 nM.

In turn, `CC(C)(C)c1ccc(-n2[se]c3ccccc3c2=O)cc1` registered an IC50 of 15100 nM.

Compound `O=C(c1ccccc1Cl)n1[se]c2ccccc2c1=O` registered a half-inhibitory concentration (IC50) of 1460 nM. This IC50 lies about 10-fold lower than the previous one.

`O=c1c2ccccc2[se]n1-c1ccc(C(F)(F)F)cc1F` returned an IC50 of 5210 nM.

`O=C(c1ccc(F)cc1F)n1[se]c2ccccc2c1=O` registered an IC50 of 1990 nM.

The compound `O=C(c1ccc(Cl)cc1)n1[se]c2ccccc2c1=O` yielded an IC50 of 1930 nM.

Take `Cc1ccccc1C(=O)n1[se]c2ccccc2c1=O`: the IC50 was determined as 3170 nM.

Consider `Cc1cccc(-n2[se]c3ccccc3c2=O)c1`, for which the IC50 came out at 3190 nM.

The compound `O=C(c1cc(F)c(F)cc1F)n1[se]c2ccccc2c1=O` gave an IC50 of 3290 nM.

As to `O=C(c1cccc(Cl)c1)n1[se]c2ccccc2c1=O`, the IC50 was 1310 nM.

`O=C(c1ccccc1Br)n1[se]c2ccccc2c1=O` registered an IC50 of 1500 nM.

`O=c1c2ccccc2[se]n1-c1ccc(OC(F)(F)F)cc1` returned an IC50 of 10600 nM.

Compound `COC(=O)c1cccc(-n2[se]c3ccccc3c2=O)c1` came in with an IC50 of 4660 nM.

In turn, `O=C(c1ccc(Br)cc1)n1[se]c2ccccc2c1=O` returned an IC50 of 940 nM. This IC50 lies about 5-fold lower than the previous one.

As to `O=C(Oc1n[se]c2ccccc12)c1ccc(F)cc1`, the IC50 turned out to be 340 nM. Against the preceding compound, the IC50 is about 2.8-fold lower.

The compound `O=C(Oc1n[se]c2ccccc12)c1cccc(F)c1F` came in with an IC50 of 440 nM.

Turning to `O=C(c1ccc([N+](=O)[O-])cc1)n1[se]c2ccccc2c1=O`, the IC50 turned out to be 1960 nM.

In turn, `O=C(c1ccccc1F)n1[se]c2ccccc2c1=O` yielded an IC50 of 870 nM.

Consider `O=C(c1cccc(F)c1F)n1[se]c2ccccc2c1=O`, for which half-maximal inhibition (IC50) was put at 1910 nM.

On to `O=C(Oc1n[se]c2ccccc12)c1cc(F)ccc1F`, for which inhibition was half-maximal at 860 nM (IC50).

With `O=c1c2ccccc2[se]n1-c1ccc(Cl)cc1`, inhibition was half-maximal at 2520 nM (IC50).

`O=c1c2ccccc2[se]n1-c1ccccc1Cl` yielded an IC50 of 1830 nM.

For `COc1ccc(-n2[se]c3ccccc3c2=O)cc1`, 7580 nM corresponded to half-maximal inhibition (IC50).

Turning to `O=C(c1cccc(C(F)(F)F)c1)n1[se]c2ccccc2c1=O`, the IC50 was 1460 nM.

The compound `O=C(c1c(F)cccc1F)n1[se]c2ccccc2c1=O` returned an IC50 of 3620 nM.

The compound `O=C(Oc1n[se]c2ccccc12)c1c(F)cccc1F` yielded an IC50 of 1120 nM.

The compound `O=c1c2ccccc2[se]n1-c1ccc(F)cc1` showed an IC50 of 2420 nM. Compared with the last compound, the IC50 is about 2.2-fold higher.

In turn, `O=C(c1ccc(C(F)(F)F)cc1)n1[se]c2ccccc2c1=O` showed an IC50 of 3540 nM.

`O=C(Oc1n[se]c2ccccc12)c1ccc(F)c(F)c1F` returned an IC50 of 1100 nM.

`Cc1ccc(C(=O)n2[se]c3ccccc3c2=O)cc1` displayed an IC50 of 3750 nM.

In the case of `O=c1c2ccccc2[se]n1-c1ccc(F)cc1Cl`, the IC50 is 1560 nM.

`O=C(c1ccc(F)c(F)c1)n1[se]c2ccccc2c1=O` had a half-inhibitory concentration (IC50) of 3360 nM.

The compound `COc1cccc(-n2[se]c3ccccc3c2=O)c1` showed an IC50 of 6660 nM.

Consider `COc1ccc(C(=O)n2[se]c3ccccc3c2=O)cc1`, for which the IC50 is 1730 nM.

`Cc1ccc(-n2[se]c3ccccc3c2=O)cc1C(F)(F)F` had an IC50 of 12100 nM. Against the preceding compound, the IC50 is about 7-fold higher.

In the case of `O=c1c2ccccc2[se]n1-c1ccc(F)c(F)c1`, the midpoint of inhibition, the IC50, lay at 3550 nM.

For `O=C(c1cccc([N+](=O)[O-])c1)n1[se]c2ccccc2c1=O`, the IC50 worked out at 1230 nM. Against the preceding compound, the IC50 is about 2.9-fold lower.

The compound `O=c1c2ccccc2[se]n1-c1cccc(Cl)c1` registered an IC50 of 2760 nM.

`O=c1c2ccccc2[se]n1-c1cc(F)ccc1Cl` gave a half-inhibitory concentration (IC50) of 1340 nM.

The compound `O=C(Oc1n[se]c2ccccc12)c1ccc(F)cc1F` had an IC50 of 360 nM.

Regarding `O=c1c2ccccc2[se]n1-c1ccccc1` [EBSELEN], the IC50 was 1510 nM.

As for `N#Cc1cccc(-n2[se]c3ccccc3c2=O)c1`, half-maximal inhibition (IC50) required 1320 nM.

For the next test, the system named is Helicobacter pylori. The experiment in a line: Antibacterial activity against Helicobacter pylori ATCC 43504 incubated for 24 hrs by broth dilution method. The format is functional. To be noted: dose 1-64 […]. On the technique in general: Broth dilution looks for growth in wells or tubes with falling amounts of substance.
Usually MIC stands for the lowest concentration that inhibits growth of the organism. High values mean a less susceptible organism, low ones a more susceptible organism. For the compound `O=c1c2ccccc2[se]n1-c1ccccc1` [EBSELEN], the Activity result is “Dose-dependent-effect” and the lowest concentration to inhibit growth (MIC) was 32 µg/mL (≈ 117 µM).

The test system of a further test is Helicobacter pylori. The test is described as follows: Antibacterial activity against Helicobacter pylori ATCC 43504 assessed as inhibition of bacterial colonies at 32 ug/mL incubated for 24 hrs by broth dilution method. The format is functional, organism-based. To be noted: dose 32.0 µg/ml.
On to `O=c1c2ccccc2[se]n1-c1ccccc1` [EBSELEN], for which the outcome was Active.
